Data as given in patent US6344217B1, “Putamen OVI” (priority 1994, dated 2002).
Values joined by “and” are separate entries in the source; they are usually repeats but may differ in a detail not shown here. Identical values can stand only once. “Also recorded” adds a separate entry of the source.

Columns and labels:
Male Wistar rats [1] = test: Haematology (WBC, RBC) after 7-day intragastral treatment of rats; assay type: in vivo, rat
Method: (§1) Male Wistar rats having an average body weight of 322.5 g were kept under conventional conditions at a room temperature of 21±1° C., a relative atmospheric humidity of about 60% and a 12 hour day/night cycle. Prior to the start of the experiment, they where subjected to an acclimatization to those keeping conditions for 12 days.
(§2) Feeding was performed with the pelletized standard diet Altromin C 1000, Misch. Nr. 100 (Altrogge). The animals were given tap water ad libidum as drinking water.
(§3) 1. Coated tablet core granules, micronized with putamen ovi; 1 coated tablet core aar® os with 640 mg contains 440 mg of putamen ovi, micronized, corresponding to 160 mg of calcium; Dosage form: Putamen ovi, coated tablet core granules, 146 mg (≡100 mg of putamen ovi, micronized≈36.5 mg of Ca) is suspended in 2 ml of dist. water (POS), 0.5 ml (POS)≡9.125 mg of Ca (PO)/[…]
(§4) The suspension were freshly prepared immediately before the administration and homogeneously administered. The control animals were given physiological saline in an equivalent volume.
erythrocytes (RBC), leucocytes (WBC), platelets (PLT), hemoglobin (HGB), hematocrit (HCT)
By means of the fully automated hematology analyzer Sysmex K-1000, the following were determined: WBC, RBC, PLT as well as HGB and HCT, further MCV, MCH and MCHC. The main unit of this device essentially consists of a hydraulic (HS) and an electronic (ES) system. The HS is used for sucking, pipetting, diluting, mixing and lysing. The ES analyzes and converts the signals from the HS and submits the results to the printer. With the aid of microprocessors, the ES also monitors the test runs, the testing station, and performs a quality control.
The hematocrit value corresponds to the percent volume fraction of erythrocytes in blood. In addition to the number of erythrocytes and the hematocrit value, the level of hemoglobin, the chromoprotein contained in the erythrocytes, is an important criterion for the diagnostics of anemias. Classification is performed by the erythrocyte indices. Erythrocyte size and hemoglobin content are characterized by the erythrocyte volume (MCV=mean corpuscular volume), the hemoglobin content of the erythrocytes (MCH=mean corpuscular hemoglobin), and the mean corpuscular hemoglobin concentration (MCHC). The erythrocyte distribution width (RDW=red cell distribution width) is a measure of anisocytosis.
(§5) Measurements were performed with the following test substances (corresponding values for the control=100%): […]

Male Wistar rats [2] = test: Clinical-chemical serum parameters after 7-day treatment of rats; assay type: in vivo, rat
Method: as §1, §2, §3, §4
Parameters such as enzymes, glucose, lipids, electrolytes, creatinin, urea and protein are detected selectively, method-oriented, photometrically or ion-selectively using the analyzer Cobas Mira. The supplemental report furnishes analysis-specific data of quality control and statistics.
The following clinical-chemical metabolic measurement values were analyzed in a combined method-specific manner: Bilirubin, creatinin, urea, glutamate oxalacetate transaminase (GOT), glutamate pyruvate transaminase (GPT), gamma-glutamyl transferase (GGT), glucose, cholesterol, triglycerides, calcium, sodium, potassium, chloride and total protein.
as §5

Male Wistar rats [3] = test: Leucocyte/lymphocyte differentiation by flow cytometry after 7-day treatment of rats; assay type: in vivo, rat
Method: as §1, §2, §3, §4
The leucocyte differentiation was performed using the flow cytometer FACScan following appropriate lysing of the whole blood sample (scattered light measurement).
The lymphocyte differentiation was performed after specific monoclonal incubation by means of fluorescence-activated cell sorting (fluorescence measurement).
On the 7th day of treatment, there were analyzed quantitatively:
For determining the phenotypes of the lymphocytes, they were incubated with the following antibodies of Pharmingen, San Diego (USA), to which a fluorochrome was coupled:
5 μl each of the antibodies is incubated with 50 μl of Na-EDTA-blood at room temperature in the dark for 20 min. The suspension is agitated with 2 ml of Lyses Reagenz of Becton-Dickinson and incubated for 10 min as described. This followed by centrifuging at 400×g for 6 min, and the supernatant is poured off. The pellet is washed with 3 ml of Cell Wash and centrifuged at 400×g for 6 min. The pellet is taken up in 100 μl of Cell Wash. The suspension is analyzed by means of the flow cytometer.
as §5

[4] = tested on: healthy females in post-menopause; details: two-year study, 361 healthy females in post-menopause; cited from earlier work
Male Wistar rats [5] = test: Histological examination of organs after 7-day treatment of rats; details: 7 days
Method: as §1, §2, §3, §4

[6] = change vs control (=100%), rats, 7 days intragastral, serum
[7] = change vs control (=100%), rats, intragastral once daily for 7 days, peripheral blood
[8] = change vs control (=100%), rats, 7th day of treatment, peripheral blood

SMILES | Ca (Male Wistar rats [2]; [6]) | WBC (number of leucocytes) (Male Wistar rats [1]; [7]) | AP (alkaline phosphatase) (Male Wistar rats [2]; [6]) | GLDH (Male Wistar rats [2]; [6]) | GOT (Male Wistar rats [2]; [6]) | GPT (Male Wistar rats [2]; [6]) | SP (acid phosphatase) (Male Wistar rats [2]; [6]) | bilirubin (Male Wistar rats [2]; [6]) | cholesterol (Male Wistar rats [2]; [6]) | creatinin (Male Wistar rats [2]; [6]) | glucose (Male Wistar rats [2]; [6]) | triglycerides (Male Wistar rats [2]; [6]) | urea (Male Wistar rats [2]; [6]) | T lymphocytes (Male Wistar rats [3]; [8]) | helper lymphocytes (Male Wistar rats [3]; [8]) | lymphocytes (Male Wistar rats [3]; [8]) | supp. lymphocytes (Male Wistar rats [3]; [8]) | also measured
O=C([O-])[O-].[Ca+2] [CC, Calcium carbonate] | unch. |  |  |  |  |  |  |  |  |  |  |  |  |  |  |  |  | RBC (number of erythrocytes) (Male Wistar rats [1]; rat, in vivo): not increased; AP (alkaline phosphatase) (Male Wistar rats [2]; rat, in vivo): +5.5%; GLDH (Male Wistar rats [2]; rat, in vivo): +6.7%; GOT (Male Wistar rats [2]; rat, in vivo): −7.1%; GPT (Male Wistar rats [2]; rat, in vivo): unch.; SP (acid phosphatase) (Male Wistar rats [2]; rat, in vivo): unch.; bilirubin (Male Wistar rats [2]; rat, in vivo): −17.3%; cholesterol (Male Wistar rats [2]; rat, in vivo): unch.; creatinin (Male Wistar rats [2]; rat, in vivo): −19.7%; glucose (Male Wistar rats [2]; rat, in vivo): +6.7%; triglycerides (Male Wistar rats [2]; rat, in vivo): −7.8%; urea (Male Wistar rats [2]; rat, in vivo): −13.9%; B lymphocytes (Male Wistar rats [3]; rat, in vivo): +7.6%; T lymphocytes (Male Wistar rats [3]; rat, in vivo): unch.; chemoprotective effect (Male Wistar rats [3]; rat, in vivo): neither showed positive effects in clinically healthy rats nor chemoprotective effects; helper lymphocytes (Male Wistar rats [3]; rat, in vivo): −4.3%; lymphocytes (Male Wistar rats [3]; rat, in vivo): unch.; polymorphs (polymorphonuclear granulocytes) (Male Wistar rats [3]; rat, in vivo): unch.; supp. lymphocytes (Male Wistar rats [3]; rat, in vivo): +12.4%; inhibitory influence on bone mass losses [4]: only a slightly pronounced inhibitory influence
O=P1(N(CCCl)CCCl)NCCCO1 (stereo not drawn) [CyS, Cyclophosphamide] | −23.2% | −51.3% | −14.7% | −21.3% | −24.6% | −30.8% | −9.1% | +58.6% | −25% | −28.3% | +5.2% | +10.1% | unch. | −51% and −51.9% | −45.9% | −55.0% | −30.9% | B lymphocytes (Male Wistar rats [3]; [8]): −79.9%; polymorphs (polymorphonuclear granulocytes) (Male Wistar rats [3]; [8]): −28.1%; erythrocytes in thorn-apple form (acanthocytes) in bone marrow sinuses (Male Wistar rats [5]): encountered
NS(=O)(=O)c1cc(C(=O)O)c(NCc2ccco2)cc1Cl [FUR, Furosemide] | −28.9% | +61.0% | −13.4% | −31.3% | unch. | −24.4% |  | +20.7% | −24.9% | −49.7% | unch. | −29.6% | −7.3% | +46.2% | +41.5% | +60.5% | unch. | RBC (number of erythrocytes) (Male Wistar rats [1]; [7]): unchanged
[F-].[Na+] [NF, Sodium fluoride] | unch. | +13.8% | unch. | −17.3% | −9.8% | −9.7% | −7.5% | +13.8% | −8.7% | −20.7% | +15.7% | −4.2% | −13.2% | did not induce an effect; also recorded: unch | did not induce an effect; also recorded: unch | unch. | did not induce an effect; also recorded: unch | 
